Reference: ChEMBL document CHEMBL1201862, “PubChem BioAssay data set” (2004)
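1) Cells in 96-well plates. 2) Compound, 48 h, 5 concentrations. 3) Linear interpolation between surrounding doses. 4) Unreached endpoint = highest concentration. GI50 = concentration required for 50% inhibition of growth.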 Activity calls are given as the source filed them. Cut-off read from the data, not from the text of the source: active = GI50 up to about 1.1 µM and inactive = higher.

How the values were obtained:
Test in all cases: NCI tumour cell line growth inhibition, 48 h
IGROV-1 = test system: IGROV-1
NCI-H226 = test system: NCI-H226
UO-31 = test system: UO-31
TK-10 = test system: TK-10
SK-MEL-2 = test system: SK-MEL-2
SF-268 = test system: SF-268
Hs-578T = test system: Hs-578T
SN12C = test system: SN12C
786-0 = test system: 786-0
SK-MEL-5 = test system: SK-MEL-5
ACHN = test system: ACHN
HCC 2998 = test system: HCC 2998
HCT-116 = test system: HCT-116
UACC-62 = test system: UACC-62
U-251 = test system: U-251
SF-539 = test system: SF-539
A498 = test system: A498
Malme-3M = test system: Malme-3M
RXF 393 = test system: RXF 393

| Structure (SMILES) | GI50 (IGROV-1) | GI50 (NCI-H226) | GI50 (UO-31) | GI50 (TK-10) | GI50 (SK-MEL-2) | GI50 (SF-268) | GI50 (Hs-578T) | GI50 (SN12C) | GI50 (786-0) | GI50 (SK-MEL-5) | GI50 (ACHN) | GI50 (HCC 2998) | GI50 (HCT-116) | GI50 (UACC-62) | GI50 (U-251) | GI50 (SF-539) | GI50 (A498) | GI50 (Malme-3M) | GI50 (RXF 393) |
| --- | --- | --- | --- | --- | --- | --- | --- | --- | --- | --- | --- | --- | --- | --- | --- | --- | --- | --- | --- |
| COc1ccc(CC2c3cc4c(cc3CCN2C)OCO4)c(C=O)c1OC (centres undefined) | > 100 µM (inactive) | 57.9 µM (inactive) | > 100 µM (inactive) | > 100 µM (inactive) | > 100 µM (inactive) | > 100 µM (inactive) | > 100 µM (inactive) | > 100 µM (inactive) | > 100 µM (inactive) | > 100 µM (inactive) | > 100 µM (inactive) | > 100 µM (inactive) | > 100 µM (inactive) | > 100 µM (inactive) | > 100 µM (inactive) | > 100 µM (inactive) | > 100 µM (inactive) | > 100 µM (inactive) |  |
| CC(=O)Nc1cc(CN2CCCCC2)c(O)c2ncccc12 | 28.4 µM (inactive) | 31.7 µM (inactive) | 7.35 µM (inactive) | 29 µM (inactive) | 4.13 µM (inactive) | 23.7 µM (inactive) | 67.3 µM (inactive) | 26 µM (inactive) | 8.04 µM (inactive) | 24.3 µM (inactive) | 17.8 µM (inactive) |  | 20.9 µM (inactive) | 19.6 µM (inactive) | 17.1 µM (inactive) | 58.5 µM (inactive) | 65.9 µM (inactive) | 22.9 µM (inactive) | 4.29 µM (inactive) |
| CNC(=O)OCC1=C(COC(=O)NC)C(C)N(c2ccc(OC)cc2)C1 (centres undefined) | 29 µM (inactive) | 1.18 µM (inactive) | 41.6 µM (inactive) | 11.5 µM (inactive) | > 100 µM (inactive) | > 100 µM (inactive) | > 100 µM (inactive) | > 100 µM (inactive) | 57 µM (inactive) | > 100 µM (inactive) | 62.2 µM (inactive) |  | > 100 µM (inactive) | 15.3 µM (inactive) | 22.4 µM (inactive) | 59.8 µM (inactive) | 0.351 µM (active) | > 100 µM (inactive) | 54.6 µM (inactive) |
| O=C1N=C2SC(=S)N=C(S)N2NC12c1ccccc1-c1ccccc12 | > 10 µM (inactive) |  | 6.28 µM (inactive) | > 10 µM (inactive) |  | > 10 µM (inactive) | > 10 µM (inactive) | > 10 µM (inactive) | > 10 µM (inactive) | 8.49 µM (inactive) |  | > 10 µM (inactive) |  | > 10 µM (inactive) | > 10 µM (inactive) | > 10 µM (inactive) | 1.55 µM (inactive) | > 10 µM (inactive) |  |
| CC1=C(C(=O)N(C)c2ccc(Cl)c(C(=O)OC(C)C)c2)SCCO1 | 98.6 µM (inactive) | 44.6 µM (inactive) | 27.2 µM (inactive) | 84.7 µM (inactive) | > 100 µM (inactive) | > 100 µM (inactive) | > 100 µM (inactive) | > 100 µM (inactive) | > 100 µM (inactive) | 29.6 µM (inactive) | 61.5 µM (inactive) | > 100 µM (inactive) | 59.2 µM (inactive) | 53.1 µM (inactive) | 92.3 µM (inactive) | > 100 µM (inactive) | 74.3 µM (inactive) | 72.3 µM (inactive) |  |
| Clc1cccc(Cl)c1C(Nc1nncs1)Nc1nncs1 | 55.3 µM (inactive) | 26.9 µM (inactive) | 62.7 µM (inactive) | 23.9 µM (inactive) | 38.6 µM (inactive) | 81.7 µM (inactive) | 71.3 µM (inactive) | 38.4 µM (inactive) | 28.7 µM (inactive) | 32.5 µM (inactive) | 73.6 µM (inactive) |  | 28.6 µM (inactive) | 67 µM (inactive) | 41.1 µM (inactive) | 23.9 µM (inactive) | 49.2 µM (inactive) | 64.4 µM (inactive) | 33.5 µM (inactive) |
